Here are results for two compounds from PMC9097471, “Development of Selective Phosphatidylinositol 5-Phosphate 4-Kinase γ Inhibitors with a Non-ATP-competitive, Allosteric Binding Mode” (Journal of Medicinal Chemistry, 2022).

Assay [1] concerns PI5P4Kγ. On the set-up: method as in ref 30 (1), ref 23 (2). The settings on record: 32P-ATP/PI5P incorporation; ref 30 (1), ref 23 (2); cited from earlier work.
Assay [2] deals with PRAK (Homo sapiens, UniProt Q8IW41). Nature of the assay: Kinase panel, radiometric 33P filter binding. The settings on record: read-out: % activity remaining.
Excerpt: (§1) filter binding assay using 33P-g-ATPat the MRC PPU International Centre for Kinase Profiling, University of
Assay [3] addresses IRAK1 (Homo sapiens, UniProt P51617). The experiment in a line: Kinase panel, radiometric 33P filter binding. The settings on record: read-out: % activity remaining.
Assay [4] deals with BTK (Homo sapiens, UniProt Q06187). The experiment in a line: Kinase panel, radiometric 33P filter binding. The settings on record: read-out: % activity remaining.
For assay [5], the target named is IRR (Homo sapiens, UniProt P14616). The experiment in a line: Kinase panel, radiometric 33P filter binding. The settings on record: read-out: % activity remaining.
Excerpt: as §1
Assay [6] has as its target FGF-R1 (Homo sapiens, UniProt P11362). The experiment in a line: Kinase panel, radiometric 33P filter binding. The settings on record: read-out: % activity remaining.
Excerpt: as §1
In assay [7] the target is ROCK 2 (Rattus norvegicus, UniProt Q62868). The experiment in a line: Kinase panel, radiometric 33P filter binding. The settings on record: read-out: % activity remaining.
Excerpt: as §1
The target in assay [8] is OSR1 (Homo sapiens, UniProt O95747). The experiment in a line: Kinase panel, radiometric 33P filter binding. The settings on record: read-out: % activity remaining.
Assay [9] addresses TBK1 (Homo sapiens, UniProt Q9UHD2). Nature of the assay: Kinase panel, radiometric 33P filter binding. The settings on record: read-out: % activity remaining.
Excerpt: as §1
Kinase % activity remaining s.d.
The target in assay [10] is PLK1 (Homo sapiens, UniProt P53350). The experiment in a line: Kinase panel, radiometric 33P filter binding. The settings on record: read-out: % activity remaining.
Excerpt: as §1
The target in assay [11] is PDK1 (Homo sapiens, UniProt O15530). Nature of the assay: Kinase panel, radiometric 33P filter binding. The settings on record: read-out: % activity remaining.
Excerpt: as §1
In assay [12] the target is MKK6 (Homo sapiens, UniProt P52564). The experiment in a line: Kinase panel, radiometric 33P filter binding. The settings on record: read-out: % activity remaining.
For assay [13], the target named is WNK1 (Homo sapiens, UniProt Q9H4A3). The experiment in a line: Kinase panel, radiometric 33P filter binding. The settings on record: read-out: % activity remaining.
Excerpt: as §1
For assay [14], the target named is RSK2 (Homo sapiens, UniProt P51812). The experiment in a line: Kinase panel, radiometric 33P filter binding. The settings on record: read-out: % activity remaining.
Excerpt: as §1
For assay [15], the target named is CAMK1 (Homo sapiens, UniProt Q14012). The experiment in a line: Kinase panel, radiometric 33P filter binding. The settings on record: read-out: % activity remaining.
Excerpt: as §1
In assay [16] the target is EF2K (Homo sapiens, UniProt O00418). The experiment in a line: Kinase panel, radiometric 33P filter binding. The settings on record: read-out: % activity remaining.
Excerpt: as §1
Assay [17] has as its target CHK1 (Homo sapiens, UniProt O14757). The experiment in a line: Kinase panel, radiometric 33P filter binding. The settings on record: read-out: % activity remaining.
Excerpt: as §1
Assay [18] concerns the target MNK1 (Homo sapiens, UniProt Q9BUB5). The experiment in a line: Kinase panel, radiometric 33P filter binding. The settings on record: read-out: % activity remaining.
In assay [19] the target is MAP4K3 (Homo sapiens, UniProt Q8IVH8). The experiment in a line: Kinase panel, radiometric 33P filter binding. The settings on record: read-out: % activity remaining.
Excerpt: as §1
For assay [20], the target named is TAO1 (Homo sapiens, UniProt Q7L7X3). Nature of the assay: Kinase panel, radiometric 33P filter binding. The settings on record: read-out: % activity remaining.
Excerpt: as §1
Assay [21] has as its target ERK2 (Homo sapiens, UniProt P28482). The experiment in a line: Kinase panel, radiometric 33P filter binding. The settings on record: read-out: % activity remaining.
Excerpt: as §1
The target in assay [22] is ULK1 (Homo sapiens, UniProt O75385). The experiment in a line: Kinase panel, radiometric 33P filter binding. The settings on record: read-out: % activity remaining.
Excerpt: as §1
Assay [23] deals with p38d MAPK (Homo sapiens, UniProt O15264). Nature of the assay: Kinase panel, radiometric 33P filter binding. The settings on record: read-out: % activity remaining.
Excerpt: as §1
For assay [24], the target named is ZAP70 (Homo sapiens, UniProt P43403). The experiment in a line: Kinase panel, radiometric 33P filter binding. The settings on record: read-out: % activity remaining.
Assay [25] has as its target p38b MAPK (Homo sapiens, UniProt Q15759). The experiment in a line: Kinase panel, radiometric 33P filter binding. The settings on record: read-out: % activity remaining.
Excerpt: as §1
Assay [26] deals with SYK (Homo sapiens, UniProt P43405). Nature of the assay: Kinase panel, radiometric 33P filter binding. The settings on record: read-out: % activity remaining.
Assay [27] addresses p38a MAPK (Homo sapiens, UniProt Q16539). The experiment in a line: Kinase panel, radiometric 33P filter binding. The settings on record: read-out: % activity remaining.
Excerpt: as §1
The target in assay [28] is JNK3 (Homo sapiens, UniProt P53779). Nature of the assay: Kinase panel, radiometric 33P filter binding. The settings on record: read-out: % activity remaining.
Excerpt: as §1
Assay [29] has as its target CK1γ2 (Homo sapiens, UniProt P78368). Nature of the assay: Kinase panel, radiometric 33P filter binding. The settings on record: read-out: % activity remaining.
Excerpt: as §1
The target of assay [30] is MARK4 (Homo sapiens, UniProt Q96L34). The experiment in a line: Kinase panel, radiometric 33P filter binding. The settings on record: read-out: % activity remaining.
Excerpt: as §1
In assay [31] the target is TTBK2 (Homo sapiens, UniProt Q6IQ55). Nature of the assay: Kinase panel, radiometric 33P filter binding. The settings on record: read-out: % activity remaining.
Excerpt: as §1
Assay [32] has as its target p38g MAPK (Homo sapiens, UniProt P53778). The experiment in a line: Kinase panel, radiometric 33P filter binding. The settings on record: read-out: % activity remaining.
Excerpt: as §1
The target of assay [33] is TAK1 (Homo sapiens, UniProt O43318). The experiment in a line: Kinase panel, radiometric 33P filter binding. The settings on record: read-out: % activity remaining.
The target in assay [34] is SIK2 (Homo sapiens, UniProt Q9H0K1). The experiment in a line: Kinase panel, radiometric 33P filter binding. The settings on record: read-out: % activity remaining.
Excerpt: as §1
Kinase % activity remaining s.d.
Assay [35] concerns the target Aurora B (Homo sapiens, UniProt Q96GD4). Nature of the assay: Kinase panel, radiometric 33P filter binding. The settings on record: read-out: % activity remaining.
Excerpt: as §1
Assay [36] addresses DYRK3 (Homo sapiens, UniProt O43781). The experiment in a line: Kinase panel, radiometric 33P filter binding. The settings on record: read-out: % activity remaining.
Excerpt: as §1
In assay [37] the target is PIM2 (Homo sapiens, UniProt Q9P1W9). The experiment in a line: Kinase panel, radiometric 33P filter binding. The settings on record: read-out: % activity remaining.
Excerpt: as §1

Sequence of IRR (P14616 27-1297): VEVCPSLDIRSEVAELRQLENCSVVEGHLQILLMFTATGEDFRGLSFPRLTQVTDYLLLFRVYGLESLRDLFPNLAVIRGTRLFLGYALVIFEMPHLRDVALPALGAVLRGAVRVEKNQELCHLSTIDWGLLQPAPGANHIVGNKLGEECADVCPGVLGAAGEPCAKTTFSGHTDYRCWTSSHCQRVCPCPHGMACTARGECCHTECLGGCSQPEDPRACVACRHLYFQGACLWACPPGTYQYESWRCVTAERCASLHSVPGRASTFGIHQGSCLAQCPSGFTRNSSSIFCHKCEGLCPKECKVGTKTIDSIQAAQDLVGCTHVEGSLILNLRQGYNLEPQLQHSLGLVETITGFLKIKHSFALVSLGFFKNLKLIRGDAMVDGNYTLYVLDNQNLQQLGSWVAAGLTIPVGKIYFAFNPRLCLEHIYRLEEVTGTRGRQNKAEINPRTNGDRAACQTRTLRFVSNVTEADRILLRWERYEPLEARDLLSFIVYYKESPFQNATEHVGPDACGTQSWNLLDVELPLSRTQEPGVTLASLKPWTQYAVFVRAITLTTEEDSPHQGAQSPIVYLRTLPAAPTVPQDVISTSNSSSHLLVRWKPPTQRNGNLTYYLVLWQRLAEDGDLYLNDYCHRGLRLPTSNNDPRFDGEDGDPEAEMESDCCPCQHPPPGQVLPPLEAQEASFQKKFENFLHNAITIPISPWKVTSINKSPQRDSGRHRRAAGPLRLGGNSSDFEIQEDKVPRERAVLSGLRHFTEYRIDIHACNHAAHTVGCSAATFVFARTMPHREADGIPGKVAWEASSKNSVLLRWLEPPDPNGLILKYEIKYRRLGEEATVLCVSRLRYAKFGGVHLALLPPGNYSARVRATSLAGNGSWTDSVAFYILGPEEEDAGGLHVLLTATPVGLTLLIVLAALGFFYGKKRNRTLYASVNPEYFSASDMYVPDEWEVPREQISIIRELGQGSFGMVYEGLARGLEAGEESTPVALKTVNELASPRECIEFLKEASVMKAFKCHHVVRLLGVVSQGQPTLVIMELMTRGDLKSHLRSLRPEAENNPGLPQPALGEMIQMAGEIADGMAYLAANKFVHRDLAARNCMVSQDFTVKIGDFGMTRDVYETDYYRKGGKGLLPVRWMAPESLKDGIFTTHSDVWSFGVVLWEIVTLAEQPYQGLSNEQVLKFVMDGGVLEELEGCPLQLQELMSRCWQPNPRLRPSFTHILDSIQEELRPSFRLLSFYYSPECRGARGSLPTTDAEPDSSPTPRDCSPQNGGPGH
Sequence of p38d MAPK (O15264 whole entry): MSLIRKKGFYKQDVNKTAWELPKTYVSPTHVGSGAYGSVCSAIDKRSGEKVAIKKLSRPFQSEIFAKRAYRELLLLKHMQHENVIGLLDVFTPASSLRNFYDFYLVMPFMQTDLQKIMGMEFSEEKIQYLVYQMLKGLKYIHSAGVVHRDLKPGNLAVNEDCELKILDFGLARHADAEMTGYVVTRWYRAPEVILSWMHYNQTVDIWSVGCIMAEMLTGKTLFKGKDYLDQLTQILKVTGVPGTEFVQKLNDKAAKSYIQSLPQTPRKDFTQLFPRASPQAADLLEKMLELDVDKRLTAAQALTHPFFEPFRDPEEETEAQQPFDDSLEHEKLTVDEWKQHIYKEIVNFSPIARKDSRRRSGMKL
Sequence of ROCK 2 (Q62868 2-543 limits assumed): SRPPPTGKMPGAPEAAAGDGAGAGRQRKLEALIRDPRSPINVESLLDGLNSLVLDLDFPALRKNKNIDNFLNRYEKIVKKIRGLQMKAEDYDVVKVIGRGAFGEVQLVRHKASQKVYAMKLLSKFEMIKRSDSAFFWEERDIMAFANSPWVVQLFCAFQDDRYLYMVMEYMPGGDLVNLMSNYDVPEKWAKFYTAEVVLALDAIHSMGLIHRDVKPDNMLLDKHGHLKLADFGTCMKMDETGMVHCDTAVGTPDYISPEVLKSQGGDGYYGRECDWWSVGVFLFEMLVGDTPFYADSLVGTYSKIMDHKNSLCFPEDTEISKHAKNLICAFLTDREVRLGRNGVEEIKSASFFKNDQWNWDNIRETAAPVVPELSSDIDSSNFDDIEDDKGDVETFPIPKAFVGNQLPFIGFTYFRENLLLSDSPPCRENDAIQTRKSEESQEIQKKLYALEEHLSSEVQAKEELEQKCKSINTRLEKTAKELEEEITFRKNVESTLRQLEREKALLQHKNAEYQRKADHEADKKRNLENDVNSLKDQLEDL
Sequence of SIK2 (Q9H0K1 whole entry): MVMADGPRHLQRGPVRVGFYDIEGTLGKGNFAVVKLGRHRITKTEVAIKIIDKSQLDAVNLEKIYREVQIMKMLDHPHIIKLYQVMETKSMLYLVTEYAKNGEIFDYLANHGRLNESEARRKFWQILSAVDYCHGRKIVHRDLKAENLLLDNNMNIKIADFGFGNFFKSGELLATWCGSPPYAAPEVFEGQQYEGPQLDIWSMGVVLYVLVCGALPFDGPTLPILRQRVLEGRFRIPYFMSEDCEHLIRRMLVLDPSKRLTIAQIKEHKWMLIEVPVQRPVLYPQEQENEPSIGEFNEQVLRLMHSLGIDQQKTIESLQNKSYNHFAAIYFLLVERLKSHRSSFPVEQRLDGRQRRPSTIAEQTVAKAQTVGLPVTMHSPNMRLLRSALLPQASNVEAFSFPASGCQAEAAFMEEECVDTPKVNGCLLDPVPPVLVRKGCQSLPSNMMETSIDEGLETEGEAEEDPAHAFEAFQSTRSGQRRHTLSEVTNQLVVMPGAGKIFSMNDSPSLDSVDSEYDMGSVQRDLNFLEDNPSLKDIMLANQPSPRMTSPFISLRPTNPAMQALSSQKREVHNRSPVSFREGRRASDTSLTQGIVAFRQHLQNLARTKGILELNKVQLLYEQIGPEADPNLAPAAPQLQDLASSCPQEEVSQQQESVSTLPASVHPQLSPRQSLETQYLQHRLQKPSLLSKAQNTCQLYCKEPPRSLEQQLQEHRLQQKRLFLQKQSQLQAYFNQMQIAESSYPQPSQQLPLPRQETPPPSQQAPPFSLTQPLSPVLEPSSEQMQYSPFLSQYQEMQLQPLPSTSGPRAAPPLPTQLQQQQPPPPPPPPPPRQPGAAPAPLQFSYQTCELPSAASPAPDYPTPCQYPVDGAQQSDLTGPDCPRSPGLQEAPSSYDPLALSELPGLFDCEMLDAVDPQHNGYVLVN
Sequence of BTK (Q06187 whole entry): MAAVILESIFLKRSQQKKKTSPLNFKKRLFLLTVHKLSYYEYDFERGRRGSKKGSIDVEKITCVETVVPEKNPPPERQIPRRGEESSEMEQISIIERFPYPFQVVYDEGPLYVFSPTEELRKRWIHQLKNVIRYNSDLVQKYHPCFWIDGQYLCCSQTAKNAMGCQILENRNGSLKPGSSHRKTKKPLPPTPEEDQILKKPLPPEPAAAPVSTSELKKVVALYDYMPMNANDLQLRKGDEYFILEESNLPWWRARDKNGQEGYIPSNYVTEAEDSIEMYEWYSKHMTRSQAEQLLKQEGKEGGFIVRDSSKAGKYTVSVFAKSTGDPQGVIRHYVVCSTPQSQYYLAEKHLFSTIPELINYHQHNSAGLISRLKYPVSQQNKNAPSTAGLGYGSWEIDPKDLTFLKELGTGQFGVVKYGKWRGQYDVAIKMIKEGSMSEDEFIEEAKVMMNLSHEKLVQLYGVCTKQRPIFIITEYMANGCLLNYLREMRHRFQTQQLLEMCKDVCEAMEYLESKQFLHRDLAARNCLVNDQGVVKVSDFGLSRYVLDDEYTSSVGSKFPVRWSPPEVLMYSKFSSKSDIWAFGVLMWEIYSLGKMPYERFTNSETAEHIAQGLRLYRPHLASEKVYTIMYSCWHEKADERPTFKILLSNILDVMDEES
Sequence of IRAK1 (P51617 whole entry): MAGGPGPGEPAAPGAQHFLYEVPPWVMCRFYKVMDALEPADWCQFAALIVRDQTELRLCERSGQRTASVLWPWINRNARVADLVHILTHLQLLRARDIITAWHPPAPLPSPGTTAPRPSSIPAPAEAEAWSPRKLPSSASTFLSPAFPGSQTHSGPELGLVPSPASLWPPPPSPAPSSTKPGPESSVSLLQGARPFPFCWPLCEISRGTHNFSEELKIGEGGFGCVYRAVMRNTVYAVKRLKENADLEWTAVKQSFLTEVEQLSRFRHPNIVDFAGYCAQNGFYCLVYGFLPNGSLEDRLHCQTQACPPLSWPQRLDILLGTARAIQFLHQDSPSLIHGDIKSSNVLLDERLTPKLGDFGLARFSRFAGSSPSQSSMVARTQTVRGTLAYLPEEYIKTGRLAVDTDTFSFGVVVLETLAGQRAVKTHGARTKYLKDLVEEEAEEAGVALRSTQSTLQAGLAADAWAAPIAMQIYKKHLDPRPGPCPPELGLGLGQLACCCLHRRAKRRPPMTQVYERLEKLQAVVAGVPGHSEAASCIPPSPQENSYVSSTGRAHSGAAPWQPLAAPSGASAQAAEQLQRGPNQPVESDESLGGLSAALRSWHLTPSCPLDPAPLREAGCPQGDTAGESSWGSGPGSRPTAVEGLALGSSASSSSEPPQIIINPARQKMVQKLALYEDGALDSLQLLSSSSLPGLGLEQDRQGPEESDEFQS
Sequence of MKK6 (P52564 whole entry): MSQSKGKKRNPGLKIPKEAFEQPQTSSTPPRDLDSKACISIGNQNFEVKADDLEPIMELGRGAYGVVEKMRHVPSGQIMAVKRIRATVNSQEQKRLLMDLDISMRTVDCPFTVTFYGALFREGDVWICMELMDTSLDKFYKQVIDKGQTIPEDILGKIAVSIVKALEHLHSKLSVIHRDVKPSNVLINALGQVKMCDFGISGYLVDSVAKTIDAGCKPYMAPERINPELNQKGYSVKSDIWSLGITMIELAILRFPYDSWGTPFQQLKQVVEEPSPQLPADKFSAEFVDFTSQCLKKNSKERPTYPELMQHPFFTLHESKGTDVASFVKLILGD

Regarding `FC(F)(F)c1ccccc1-c1nc(NCc2cccs2)c2ccccc2n1` [Compound 1, NIH-12848, reference compound], the IC50 in assay [1] is 2000 to 3000 nM.

With `CC(C)c1ccccc1-c1nc(NCc2ccccn2)c2c(ccn2C)n1` [Compound 40], the remaining activity at 10 µM in [2] stood at 98%; in assay [3], 114%; in assay [4] it was 111%; in assay [5], 99%; in assay [6], 92%; in assay [7], 97%. Moreover, the remaining activity at 10 µM in [8] came out at 120%; in assay [9], 93%; in assay [10] it was 97%; in assay [11], 103%; in assay [12] it was 90%; in assay [13], 112%. For the same compound, the remaining activity at 10 µM was 106% in [14]; 97% in [15]; 98% in assay [16]; 96% in [17]; 104% in [18]; 91% in [19]. For the same compound, the remaining activity at 10 µM was 115% in assay [20]; 98% in assay [21]; 111% in assay [22]; 117% in assay [23]; 95% in assay [24]; 94% in assay [25]. Also, the remaining activity at 10 µM in assay [26] amounted to 91%; in [27] it was 100%; in [28], 97%; in assay [29], 97%; in [30] it was 105%; in assay [31], 114%. Further, the remaining activity at 10 µM in [32] is 105%; in assay [33], 110%; in assay [34] it was 100%; in [35] it was 113%; in assay [36], 128%; in assay [37], 110%.

What is called IC50 is the concentration that gives 50% inhibition. For orientation: remaining activity means the signal under treatment as a percentage of the control signal.
